Measured values taken from ChEMBL document CHEMBL4507319 (2021).

Assays:
[1] = target: Activin receptor type-1-like (Homo sapiens) (UniProt P37023); details: Compound concentration 1000.0 nM
[2] = target: RAC-alpha serine/threonine-protein kinase (Homo sapiens) (UniProt P31749); details: Compound concentration 1000.0 nM
[3] = target: T1, NUAK family SNF1-like kinase 1 (Homo sapiens) (UniProt O60285); details: Compound concentration 1000.0 nM
T1 sequence (whole entry): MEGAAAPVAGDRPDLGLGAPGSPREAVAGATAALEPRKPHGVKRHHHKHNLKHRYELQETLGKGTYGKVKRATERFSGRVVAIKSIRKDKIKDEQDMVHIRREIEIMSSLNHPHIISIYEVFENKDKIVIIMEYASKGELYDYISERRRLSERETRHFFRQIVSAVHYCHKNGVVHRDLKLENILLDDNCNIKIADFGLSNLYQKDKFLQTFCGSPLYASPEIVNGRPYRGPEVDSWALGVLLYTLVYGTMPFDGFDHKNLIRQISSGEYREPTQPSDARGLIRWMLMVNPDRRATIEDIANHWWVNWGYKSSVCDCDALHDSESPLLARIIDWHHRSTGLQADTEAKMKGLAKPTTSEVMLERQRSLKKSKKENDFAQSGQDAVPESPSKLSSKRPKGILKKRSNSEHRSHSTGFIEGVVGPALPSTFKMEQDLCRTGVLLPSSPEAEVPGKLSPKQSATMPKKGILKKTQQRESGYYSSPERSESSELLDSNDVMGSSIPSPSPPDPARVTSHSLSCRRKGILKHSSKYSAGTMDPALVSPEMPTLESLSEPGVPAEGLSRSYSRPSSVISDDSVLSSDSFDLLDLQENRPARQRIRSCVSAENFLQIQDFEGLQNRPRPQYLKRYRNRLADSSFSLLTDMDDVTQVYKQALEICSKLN

[4] = target: Calcium/calmodulin-dependent protein kinase type II subunit beta (Homo sapiens) (UniProt Q13554); details: Compound concentration 1000.0 nM
Chain of Calcium/calmodulin-dependent protein kinase type II subunit beta (Homo sapiens) (Q13554 whole entry): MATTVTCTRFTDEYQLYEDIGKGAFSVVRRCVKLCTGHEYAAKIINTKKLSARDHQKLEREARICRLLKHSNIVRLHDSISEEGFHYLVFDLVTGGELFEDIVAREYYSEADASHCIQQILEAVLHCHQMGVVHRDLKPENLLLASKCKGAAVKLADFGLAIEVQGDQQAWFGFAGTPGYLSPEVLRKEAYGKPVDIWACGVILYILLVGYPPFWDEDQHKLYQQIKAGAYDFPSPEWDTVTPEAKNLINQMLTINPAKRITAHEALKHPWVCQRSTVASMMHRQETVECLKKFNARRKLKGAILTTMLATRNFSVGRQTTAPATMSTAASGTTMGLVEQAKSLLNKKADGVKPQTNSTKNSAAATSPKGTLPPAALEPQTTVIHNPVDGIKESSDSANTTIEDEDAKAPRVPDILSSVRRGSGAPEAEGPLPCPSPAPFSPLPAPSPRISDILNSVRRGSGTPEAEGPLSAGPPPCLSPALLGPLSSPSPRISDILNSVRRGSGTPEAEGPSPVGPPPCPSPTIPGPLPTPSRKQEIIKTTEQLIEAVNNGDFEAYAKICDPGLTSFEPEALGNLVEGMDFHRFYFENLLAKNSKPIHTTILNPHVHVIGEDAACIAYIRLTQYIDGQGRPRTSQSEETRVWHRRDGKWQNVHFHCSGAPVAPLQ

[5] = target: Dual specificity tyrosine-phosphorylation-regulated kinase 1B (Homo sapiens) (UniProt Q9Y463); details: Compound concentration 1000.0 nM
[6] = target: T2, Ephrin type-A receptor 1 (Homo sapiens) (UniProt P21709); details: Compound concentration 1000.0 nM
T2 sequence (whole entry): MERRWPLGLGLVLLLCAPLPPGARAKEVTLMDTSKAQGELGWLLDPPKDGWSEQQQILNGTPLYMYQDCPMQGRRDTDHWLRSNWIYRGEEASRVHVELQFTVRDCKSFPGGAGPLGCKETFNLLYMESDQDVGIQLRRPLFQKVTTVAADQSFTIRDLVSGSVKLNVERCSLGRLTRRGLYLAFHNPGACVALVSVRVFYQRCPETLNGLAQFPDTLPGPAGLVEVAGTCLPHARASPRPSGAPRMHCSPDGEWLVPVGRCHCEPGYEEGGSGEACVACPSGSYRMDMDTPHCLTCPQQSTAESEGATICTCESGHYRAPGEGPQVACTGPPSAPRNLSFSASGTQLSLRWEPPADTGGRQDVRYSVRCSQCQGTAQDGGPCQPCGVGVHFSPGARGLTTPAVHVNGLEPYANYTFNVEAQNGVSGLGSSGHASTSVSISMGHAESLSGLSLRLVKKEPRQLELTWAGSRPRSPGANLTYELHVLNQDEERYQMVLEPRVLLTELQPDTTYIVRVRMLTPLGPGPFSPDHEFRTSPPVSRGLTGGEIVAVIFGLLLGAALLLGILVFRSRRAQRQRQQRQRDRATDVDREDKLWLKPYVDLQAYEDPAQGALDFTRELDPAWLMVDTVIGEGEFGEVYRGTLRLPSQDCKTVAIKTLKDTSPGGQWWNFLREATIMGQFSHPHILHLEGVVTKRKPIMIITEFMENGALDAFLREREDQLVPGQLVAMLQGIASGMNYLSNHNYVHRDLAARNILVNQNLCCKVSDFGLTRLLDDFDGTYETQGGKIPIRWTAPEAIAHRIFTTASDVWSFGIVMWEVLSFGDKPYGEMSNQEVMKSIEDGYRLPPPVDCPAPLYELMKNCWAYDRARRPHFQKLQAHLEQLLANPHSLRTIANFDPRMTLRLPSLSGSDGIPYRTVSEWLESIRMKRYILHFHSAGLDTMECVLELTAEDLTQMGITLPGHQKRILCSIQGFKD

[7] = target: LIM domain kinase 1 (Homo sapiens) (UniProt P53667); details: Compound concentration 1000.0 nM
Chain of LIM domain kinase 1 (Homo sapiens) (P53667 whole entry, looked up, the tested form may be a part): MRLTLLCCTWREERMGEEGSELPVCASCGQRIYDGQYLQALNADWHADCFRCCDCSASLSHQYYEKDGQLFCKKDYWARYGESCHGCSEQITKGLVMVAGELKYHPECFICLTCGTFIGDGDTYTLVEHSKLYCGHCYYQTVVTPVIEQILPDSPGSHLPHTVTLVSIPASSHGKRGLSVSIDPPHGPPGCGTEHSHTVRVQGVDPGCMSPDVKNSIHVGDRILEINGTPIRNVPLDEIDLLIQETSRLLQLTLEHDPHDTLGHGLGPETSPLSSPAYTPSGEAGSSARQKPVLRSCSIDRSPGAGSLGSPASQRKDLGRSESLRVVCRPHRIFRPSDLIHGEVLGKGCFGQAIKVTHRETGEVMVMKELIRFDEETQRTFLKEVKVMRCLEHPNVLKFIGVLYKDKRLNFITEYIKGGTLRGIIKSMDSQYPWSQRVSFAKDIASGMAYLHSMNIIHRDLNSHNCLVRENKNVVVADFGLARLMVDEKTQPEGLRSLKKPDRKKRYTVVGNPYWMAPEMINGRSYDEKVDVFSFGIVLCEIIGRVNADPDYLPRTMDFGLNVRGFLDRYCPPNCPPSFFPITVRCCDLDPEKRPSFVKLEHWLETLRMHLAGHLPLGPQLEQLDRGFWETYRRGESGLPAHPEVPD

[8] = system: Hepatocyte growth factor receptor (Homo sapiens), P08581 [M1250T]; details: Compound concentration 1000.0 nM
[9] = system: Phosphatidylinositol 4,5-bisphosphate 3-kinase catalytic subunit alpha isoform (Homo sapiens), P42336 [Q546K]; details: Compound concentration 1000.0 nM
Chain of Phosphatidylinositol 4,5-bisphosphate 3-kinase catalytic subunit alpha isoform (Homo sapiens), P42336 [Q546K] (P42336 whole entry Q546K, canonical isoform): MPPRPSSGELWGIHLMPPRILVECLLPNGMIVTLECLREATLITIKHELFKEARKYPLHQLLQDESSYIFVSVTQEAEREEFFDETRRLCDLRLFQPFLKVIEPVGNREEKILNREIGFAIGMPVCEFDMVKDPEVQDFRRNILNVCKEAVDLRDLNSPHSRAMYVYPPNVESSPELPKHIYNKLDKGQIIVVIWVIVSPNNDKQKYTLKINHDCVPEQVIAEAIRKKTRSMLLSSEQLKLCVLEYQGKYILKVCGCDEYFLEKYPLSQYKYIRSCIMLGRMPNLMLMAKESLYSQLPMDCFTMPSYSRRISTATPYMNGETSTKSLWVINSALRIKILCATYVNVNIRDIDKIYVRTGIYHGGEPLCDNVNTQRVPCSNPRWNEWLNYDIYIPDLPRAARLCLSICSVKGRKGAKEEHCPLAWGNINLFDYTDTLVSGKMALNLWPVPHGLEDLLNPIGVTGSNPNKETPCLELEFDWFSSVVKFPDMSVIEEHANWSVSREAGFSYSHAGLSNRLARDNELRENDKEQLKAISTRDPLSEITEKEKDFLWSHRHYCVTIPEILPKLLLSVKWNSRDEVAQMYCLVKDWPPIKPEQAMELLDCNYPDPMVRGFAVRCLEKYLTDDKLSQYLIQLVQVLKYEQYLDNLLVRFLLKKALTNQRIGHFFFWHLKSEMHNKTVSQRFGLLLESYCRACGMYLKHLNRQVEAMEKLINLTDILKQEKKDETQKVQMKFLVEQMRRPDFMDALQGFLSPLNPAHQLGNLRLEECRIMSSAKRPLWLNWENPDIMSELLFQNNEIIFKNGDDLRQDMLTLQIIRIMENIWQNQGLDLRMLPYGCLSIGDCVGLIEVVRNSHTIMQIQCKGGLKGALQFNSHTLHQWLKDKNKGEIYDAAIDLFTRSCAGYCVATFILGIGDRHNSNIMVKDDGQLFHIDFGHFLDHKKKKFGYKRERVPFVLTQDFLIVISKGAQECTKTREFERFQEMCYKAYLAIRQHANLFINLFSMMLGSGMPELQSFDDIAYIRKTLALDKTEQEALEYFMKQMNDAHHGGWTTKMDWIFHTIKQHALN

[10] = target: T3, Protein kinase C epsilon type (Homo sapiens) (UniProt Q02156); details: Compound concentration 1000.0 nM
T3 sequence (whole entry): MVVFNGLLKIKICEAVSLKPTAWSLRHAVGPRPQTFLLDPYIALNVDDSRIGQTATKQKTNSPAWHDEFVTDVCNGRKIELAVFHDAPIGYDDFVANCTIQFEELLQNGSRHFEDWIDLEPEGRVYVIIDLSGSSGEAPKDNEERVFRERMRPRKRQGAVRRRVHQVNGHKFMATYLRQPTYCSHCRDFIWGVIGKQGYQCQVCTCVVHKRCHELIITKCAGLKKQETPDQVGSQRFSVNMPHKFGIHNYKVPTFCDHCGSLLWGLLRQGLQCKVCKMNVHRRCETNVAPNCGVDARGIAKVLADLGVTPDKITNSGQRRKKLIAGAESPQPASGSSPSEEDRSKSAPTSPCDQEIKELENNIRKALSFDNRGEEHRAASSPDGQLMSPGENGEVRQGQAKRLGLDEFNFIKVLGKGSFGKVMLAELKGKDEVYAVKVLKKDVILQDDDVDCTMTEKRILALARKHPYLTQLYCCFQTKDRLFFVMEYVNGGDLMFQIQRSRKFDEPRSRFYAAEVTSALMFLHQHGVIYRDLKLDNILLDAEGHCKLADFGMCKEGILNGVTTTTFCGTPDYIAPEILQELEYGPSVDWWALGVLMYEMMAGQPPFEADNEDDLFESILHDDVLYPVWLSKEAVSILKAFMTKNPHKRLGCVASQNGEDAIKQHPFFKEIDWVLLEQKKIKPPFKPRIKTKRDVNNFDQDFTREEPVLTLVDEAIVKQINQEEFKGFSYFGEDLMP

[11] = target: 5-hydroxytryptamine receptor 2A (Homo sapiens) (UniProt P28223); details: Compound concentration 10.0 uM
Chain of 5-hydroxytryptamine receptor 2A (Homo sapiens) (P28223 whole entry): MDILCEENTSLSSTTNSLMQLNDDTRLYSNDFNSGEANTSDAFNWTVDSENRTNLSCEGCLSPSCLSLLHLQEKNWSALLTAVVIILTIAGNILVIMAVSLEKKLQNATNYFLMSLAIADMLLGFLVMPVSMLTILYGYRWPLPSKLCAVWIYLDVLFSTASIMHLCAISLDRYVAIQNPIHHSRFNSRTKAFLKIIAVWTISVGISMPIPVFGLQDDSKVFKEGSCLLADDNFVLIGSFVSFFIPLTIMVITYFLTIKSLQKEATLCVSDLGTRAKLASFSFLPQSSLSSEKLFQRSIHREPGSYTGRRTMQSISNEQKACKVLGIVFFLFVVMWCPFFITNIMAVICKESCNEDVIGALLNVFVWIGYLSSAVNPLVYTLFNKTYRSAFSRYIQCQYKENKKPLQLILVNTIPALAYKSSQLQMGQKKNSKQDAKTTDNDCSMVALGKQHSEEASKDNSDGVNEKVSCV

[12] = target: Beta-1 adrenergic receptor (Homo sapiens) (UniProt P08588); details: Compound concentration 10.0 uM
Chain of Beta-1 adrenergic receptor (Homo sapiens) (P08588 whole entry, looked up): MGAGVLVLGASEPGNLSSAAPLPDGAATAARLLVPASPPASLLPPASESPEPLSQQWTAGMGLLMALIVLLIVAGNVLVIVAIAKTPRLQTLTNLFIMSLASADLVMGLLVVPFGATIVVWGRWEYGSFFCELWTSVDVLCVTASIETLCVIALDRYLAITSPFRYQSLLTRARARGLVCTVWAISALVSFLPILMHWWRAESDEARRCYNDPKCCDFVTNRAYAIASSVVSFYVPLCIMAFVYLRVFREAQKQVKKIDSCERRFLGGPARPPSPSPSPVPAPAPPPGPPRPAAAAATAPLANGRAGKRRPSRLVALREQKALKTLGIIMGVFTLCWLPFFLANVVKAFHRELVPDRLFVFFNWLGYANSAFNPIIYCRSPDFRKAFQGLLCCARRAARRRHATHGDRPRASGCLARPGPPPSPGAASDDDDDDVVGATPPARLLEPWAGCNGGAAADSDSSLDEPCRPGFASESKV

[13] = target: Muscarinic acetylcholine receptor M2 (Homo sapiens) (UniProt P08172); details: Compound concentration 10.0 uM
Chain of Muscarinic acetylcholine receptor M2 (Homo sapiens) (P08172 whole entry): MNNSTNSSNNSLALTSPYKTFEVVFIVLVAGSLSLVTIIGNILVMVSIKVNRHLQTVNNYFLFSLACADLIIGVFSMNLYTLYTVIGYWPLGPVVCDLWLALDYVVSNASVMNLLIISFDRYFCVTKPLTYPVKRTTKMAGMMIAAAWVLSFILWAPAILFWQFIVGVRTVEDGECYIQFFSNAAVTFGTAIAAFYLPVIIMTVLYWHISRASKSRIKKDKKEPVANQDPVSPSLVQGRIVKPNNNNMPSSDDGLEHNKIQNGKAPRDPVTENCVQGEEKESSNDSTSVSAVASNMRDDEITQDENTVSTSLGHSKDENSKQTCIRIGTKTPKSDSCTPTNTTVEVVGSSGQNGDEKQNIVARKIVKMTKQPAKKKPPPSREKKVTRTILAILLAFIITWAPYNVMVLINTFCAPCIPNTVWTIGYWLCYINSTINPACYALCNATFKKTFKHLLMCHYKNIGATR

Chain of RAC-alpha serine/threonine-protein kinase (Homo sapiens) (P31749 whole entry): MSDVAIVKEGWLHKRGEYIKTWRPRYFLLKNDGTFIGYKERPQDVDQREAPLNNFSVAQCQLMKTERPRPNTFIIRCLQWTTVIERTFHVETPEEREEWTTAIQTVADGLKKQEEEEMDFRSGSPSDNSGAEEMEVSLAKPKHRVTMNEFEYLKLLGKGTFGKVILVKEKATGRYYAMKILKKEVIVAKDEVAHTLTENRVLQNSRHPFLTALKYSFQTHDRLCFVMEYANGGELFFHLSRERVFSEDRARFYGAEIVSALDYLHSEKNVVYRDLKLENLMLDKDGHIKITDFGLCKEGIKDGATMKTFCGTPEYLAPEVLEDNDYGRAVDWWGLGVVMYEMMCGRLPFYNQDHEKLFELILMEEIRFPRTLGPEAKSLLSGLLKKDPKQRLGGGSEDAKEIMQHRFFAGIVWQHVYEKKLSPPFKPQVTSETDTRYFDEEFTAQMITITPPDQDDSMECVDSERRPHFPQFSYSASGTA
Chain of Activin receptor type-1-like (Homo sapiens) (P37023 whole entry): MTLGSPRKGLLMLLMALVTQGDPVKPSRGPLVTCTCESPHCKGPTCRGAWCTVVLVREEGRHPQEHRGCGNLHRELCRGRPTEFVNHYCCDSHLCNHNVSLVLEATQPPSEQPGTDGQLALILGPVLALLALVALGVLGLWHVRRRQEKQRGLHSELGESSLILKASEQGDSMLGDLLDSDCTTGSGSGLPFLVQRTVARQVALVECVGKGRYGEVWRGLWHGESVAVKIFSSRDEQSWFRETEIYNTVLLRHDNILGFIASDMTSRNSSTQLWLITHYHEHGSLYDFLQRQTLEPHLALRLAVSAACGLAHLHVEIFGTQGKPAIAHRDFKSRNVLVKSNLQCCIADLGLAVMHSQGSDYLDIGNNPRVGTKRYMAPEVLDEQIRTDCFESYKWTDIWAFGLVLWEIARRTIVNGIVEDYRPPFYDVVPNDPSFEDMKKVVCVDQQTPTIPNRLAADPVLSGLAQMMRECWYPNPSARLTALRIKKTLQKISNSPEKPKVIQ

Row | Compound | residual activity [1] | residual activity [2] | residual activity [3] | residual activity [4] | residual activity [5] | residual activity [6] | residual activity [7] | residual activity [8] | residual activity [9] | residual activity [10] | inhibition [11] | inhibition [12] | inhibition [13]
1 | CCc1ccccc1C(=O)Nc1n[nH]c2c(C)c(F)c(C3C(C#N)=C(C)N(C)C(C)=C3C#N)cc12 [BAY-3827] | 75% | 75% | 33% | 73% | 100% | 60% | 100% | 25% | 39% | 19% | 14.8% | 1.59% | 5.1%
2 | CC1=C(C#N)C(c2ccc3c(c2)c(NC(=O)c2ccccc2C)nn3C)C(C#N)=C(C)N1 [BAY-974] | 97% | 94% | 95% | 86% | 63% | 88% | 94% | 27% | 87% | 85% | 8.41% | -7.79% | -2.08%
